Consider 21 molecules from ChEMBL document CHEMBL1154168, “New 2-aryloxy-3-phenyl-propanoic acids as peroxisome proliferator-activated receptors alpha/gamma dual agonists with improved potency and reduced adverse effects on skeletal muscle function” (J Med Chem, 2009).

Assay [1] relates to Extensor digitorum longus. Briefly: Inhibition of resting potassium conductance in Wistar rat extensor digitorum longus muscle by electrophysiology method. The format is functional, tissue-based.
The target in assay [2] is T1, Chloride channel isoform 1 (Rattus norvegicus) (UniProt Q7TT78).
T1 sequence (whole entry): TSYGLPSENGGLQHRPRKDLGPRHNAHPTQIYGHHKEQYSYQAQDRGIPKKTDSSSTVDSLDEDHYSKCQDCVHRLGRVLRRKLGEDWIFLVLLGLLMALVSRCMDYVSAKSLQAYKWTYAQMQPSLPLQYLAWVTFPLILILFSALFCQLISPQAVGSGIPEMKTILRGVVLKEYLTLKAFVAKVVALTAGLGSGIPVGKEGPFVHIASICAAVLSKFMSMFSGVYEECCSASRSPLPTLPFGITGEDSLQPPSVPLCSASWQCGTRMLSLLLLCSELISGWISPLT
Briefly: Inhibition of CIC1 in Wistar rat extensor digitorum longus muscle assessed as decrease in resting chloride channel conductance at 50 uM by electrophysiology method. It counts as tissue-based. Set-up: scale not given: the % may be the effect or the level left.

The target of assay [3] is T1, Chloride channel isoform 1 (Rattus norvegicus). Briefly: Inhibition of CIC1 in Wistar rat extensor digitorum longus muscle assessed as decrease in resting chloride channel conductance at 100 uM by electrophysiology method. It counts as tissue-based. Also on record: scale not given: the % may be the effect or the level left.
The target in assay [4] is T2, Peroxisome proliferator-activated receptor gamma (Homo sapiens, UniProt P37231).
T2 sequence (P37231 whole entry): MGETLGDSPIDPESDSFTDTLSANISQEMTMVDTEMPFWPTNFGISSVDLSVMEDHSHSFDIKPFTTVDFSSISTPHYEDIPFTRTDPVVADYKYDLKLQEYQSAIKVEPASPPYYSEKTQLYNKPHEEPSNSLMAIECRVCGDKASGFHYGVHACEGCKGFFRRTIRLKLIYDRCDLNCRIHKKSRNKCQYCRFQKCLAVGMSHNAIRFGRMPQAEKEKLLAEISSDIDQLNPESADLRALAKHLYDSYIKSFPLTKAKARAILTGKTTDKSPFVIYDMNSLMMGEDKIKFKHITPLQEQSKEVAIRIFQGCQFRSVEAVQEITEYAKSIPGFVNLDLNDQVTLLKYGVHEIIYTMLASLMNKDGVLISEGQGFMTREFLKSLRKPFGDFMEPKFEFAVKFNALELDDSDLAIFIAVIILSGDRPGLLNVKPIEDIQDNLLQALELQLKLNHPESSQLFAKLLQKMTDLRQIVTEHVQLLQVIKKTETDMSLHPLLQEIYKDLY

Assay [5] addresses T3, Peroxisome proliferator-activated receptor alpha (Homo sapiens, UniProt Q07869).
T3 sequence (Q07869 whole entry): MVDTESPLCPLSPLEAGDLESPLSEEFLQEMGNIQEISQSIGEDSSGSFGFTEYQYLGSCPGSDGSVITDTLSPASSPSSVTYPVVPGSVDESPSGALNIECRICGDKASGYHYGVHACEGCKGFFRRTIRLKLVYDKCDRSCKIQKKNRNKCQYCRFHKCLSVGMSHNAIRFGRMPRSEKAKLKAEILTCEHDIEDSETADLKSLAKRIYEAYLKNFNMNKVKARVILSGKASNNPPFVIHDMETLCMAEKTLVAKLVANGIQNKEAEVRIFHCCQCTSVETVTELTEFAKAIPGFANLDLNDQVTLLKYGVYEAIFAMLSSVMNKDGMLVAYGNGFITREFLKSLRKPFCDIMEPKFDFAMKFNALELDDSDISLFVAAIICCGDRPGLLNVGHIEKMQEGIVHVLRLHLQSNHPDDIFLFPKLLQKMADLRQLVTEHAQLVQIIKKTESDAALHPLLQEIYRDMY
Kind of assay: Agonist activity at GAL4-tagged human PPARalpha ligand binding domain expressed in human HepG2 cells assessed as receptor transactivation by luciferase reporter gene assay. The format is cell-based. (In general: In a reporter assay the amount or activity of a reporter protein is the signal.)

Assay [6] deals with T4, Peroxisome proliferator-activated receptor alpha (Homo sapiens) (UniProt Q07869).
T4 sequence (whole entry): T3 sequence (Q07869 whole entry)
Briefly: Agonist activity at GAL4-tagged human PPARalpha ligand binding domain expressed in human HepG2 cells assessed as receptor transactivation by luciferase reporter gene assay relative to Wy-14643. It counts as cell-based.

For assay [7], the target named is T1, Chloride channel isoform 1 (Rattus norvegicus). Kind of assay: Inhibition of CIC1 in Wistar rat extensor digitorum longus muscle assessed as decrease in resting chloride channel conductance at 5 uM by electrophysiology method. Also on record: scale not given: the % may be the effect or the level left. It counts as tissue-based.
Assay [8] has as its target T2, Peroxisome proliferator-activated receptor gamma. To be noted: hepg2.

Activity calls are given as the source filed them. The rule behind the calls is not given here.

Broadly, the EC50 is the concentration at which the effect is half-maximal. With `O=C(O)[C@H](Cc1ccccc1)Oc1ccc(Cc2ccccc2)cc1`, the outcome in assay [1] was inactive. Moreover, the Activity in assay [2] amounted to 2%; in assay [3] it was 9%. Besides, the results for the EC50 in assay [4] and in assay [5] (read-out: EC50) were 572 nM and 11.5 nM, respectively.

Regarding `CC(C)(Oc1ccc(C(=O)c2ccc(Cl)cc2)cc1)C(=O)O`, in assay [3], the Activity worked out at 11%.

With `O=C(O)[C@H](Cc1ccccc1)Oc1ccc(-c2ccccc2)cc1`, in assay [1], the result was inactive. The Efficacy in assay [6] was found to be 116%. The Activity in assay [7] stood at 2%; in assay [3], 12%.

With `O=C(O)C(Cc1ccccc1)Oc1ccc(SCc2ccccc2)cc1` (racemic), the Efficacy in assay [6] came out at 134%. Also, the EC50 turned out to be 1400 nM in assay [4] and 488 nM in assay [5] (read-out: EC50).

For `CN(CCOc1ccc(CC2SC(=O)NC2=O)cc1)c1ccccn1` (stereo not drawn) [ROSIGLITAZONE], in assay [6], the Efficacy result is “inactive”. Also, in assay [5] (hepg2), the EC50 result was “Not Active”.

`O=C(O)C(Cc1ccccc1)Oc1ccc(Cc2ccccc2)cc1` (racemic): the Efficacy in assay [6] is 115%. Further, the EC50 was 580 nM in assay [4] and 15.9 nM in assay [5] (read-out: EC50).

In the case of `Cc1cccc(Nc2cc(Cl)nc(SCC(=O)O)n2)c1C` [PIRINIXIC ACID], in assay [8], the EC50 entry is “Not Active”.

As for `O=C(O)C(Cc1ccccc1)Oc1ccc(CCc2ccccc2)cc1` (racemic), the Efficacy in assay [6] turned out to be 86%. Besides, the EC50 in assay [4] was found to be 860 nM; in assay [5] (read-out: EC50), 330 nM.

As to `O=C(O)[C@@H](Cc1ccccc1)Oc1ccc(CCc2ccccc2)cc1`, the Efficacy entry in assay [6] was “inactive”. Also, the EC50 in assay [4] was 1600 nM; in assay [5] (hepg2) it was “Not Active”.

As for `O=C(Cc1ccccc1)c1ccc(OC(Cc2ccccc2)C(=O)O)cc1` (racemic), the Efficacy in assay [6] came to 106%. For the same molecule, the EC50 in assay [4] came to 9100 nM; in assay [5] (read-out: EC50), 1800 nM.

For `O=C(O)C(Cc1ccccc1)Oc1ccc(C#Cc2ccccc2)cc1` (racemic), in assay [6], the Efficacy turned out to be 36%. In addition, the EC50 in assay [4] is 540 nM; in assay [5] (read-out: EC50), 1360 nM.

Consider `CC(C)(Oc1ccc(Cl)cc1)C(=O)O`, for which, in assay [3], the Activity turned out to be 28%.

In the case of `O=C(O)C(Cc1ccccc1)Oc1ccc(CNc2ccccc2)cc1` (racemic), the Efficacy in assay [6] was determined as 120%. In addition, the EC50 in assay [4] is 9400 nM; in assay [5] (read-out: EC50), 1400 nM.

Consider `O=C(O)C(Cc1ccccc1)Oc1ccc(NCc2ccccc2)cc1` (racemic), for which the Efficacy in assay [6] is 78%. Besides, the EC50 stood at 13000 nM in assay [4] and 3600 nM in assay [5] (read-out: EC50).

Consider `O=C(O)C(Cc1ccccc1)Oc1ccc(CSc2ccccc2)cc1` (racemic), for which the Efficacy in assay [6] came out at 92%. In addition, the figures for the EC50 in assay [4] and in assay [5] (read-out: EC50) were 400 nM and 310 nM, respectively.

With `O=C(O)[C@@H](Cc1ccccc1)Oc1ccc(Cc2ccccc2)cc1`, the Efficacy in assay [6] is 82%. Moreover, the EC50 in assay [4] is 5700 nM; in assay [5] (read-out: EC50), 2400 nM.

Turning to `O=C(O)C(Cc1ccccc1)Oc1ccc(OCc2ccccc2)cc1` (racemic), the Efficacy in assay [6] is 112%. Further, the EC50 in assay [4] turned out to be 2400 nM; in assay [5] (read-out: EC50), 107 nM.

Consider `O=C(O)[C@H](Cc1ccccc1)Oc1ccc(CCc2ccccc2)cc1`, for which, in assay [1], the result was inactive. In addition, the Activity in assay [3] was 24%. In assay [4], the EC50 amounted to 400 nM.

For the molecule `O=C(O)C(Cc1ccccc1)Oc1ccc(COc2ccccc2)cc1` (racemic), in assay [6], the Efficacy came out at 107%. Besides, the EC50 in assay [4] turned out to be 3000 nM; in assay [5] (read-out: EC50), 600 nM.

As for `O=C(O)C(Cc1ccccc1)Oc1ccc(Oc2ccccc2)cc1` (racemic), in assay [6], the Efficacy came out at 126%. The EC50 in assay [4] turned out to be 1210 nM; in assay [5] (read-out: EC50), 60 nM.

Consider `O=C(O)C(Cc1ccccc1)Oc1ccc(CCCc2ccccc2)cc1` (racemic), for which the Efficacy in assay [6] worked out at 67%. The concentration giving a half-maximal response (EC50) in assay [5] (read-out: EC50) came to 720 nM.
